From ChEMBL document CHEMBL1138366, “Conformational comparisons of a series of tachykinin peptide analogs” (J Med Chem, 2007)
Residues, ends and D or L forms follow the SMILES beside them.

Target: Substance-P receptor (Rattus norvegicus, UniProt P14600)
Assay: Displacement of [125I]Lys3-substance P from rat NK1 receptor expressed in CHO cells
Type: cell-based

Sequence of Substance-P receptor (P14600 whole entry): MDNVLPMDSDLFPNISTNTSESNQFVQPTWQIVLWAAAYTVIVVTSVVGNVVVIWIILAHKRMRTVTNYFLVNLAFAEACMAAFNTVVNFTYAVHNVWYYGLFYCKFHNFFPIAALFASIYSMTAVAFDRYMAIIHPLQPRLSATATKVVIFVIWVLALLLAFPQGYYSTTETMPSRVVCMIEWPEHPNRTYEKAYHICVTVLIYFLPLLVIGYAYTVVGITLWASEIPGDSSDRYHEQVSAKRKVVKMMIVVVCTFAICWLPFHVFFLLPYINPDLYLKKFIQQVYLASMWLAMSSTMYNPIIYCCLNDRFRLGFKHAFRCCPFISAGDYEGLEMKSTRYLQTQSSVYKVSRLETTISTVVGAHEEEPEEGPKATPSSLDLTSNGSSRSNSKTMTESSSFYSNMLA

Row | SMILES | IC50 (read-out: IC50) | IC50 (read-out: Log IC50 (converted))
1 | CSCC[C@H](NC(=O)[C@H](CC(C)C)NC(=O)CNC(=O)[C@H](Cc1ccccc1)NC(=O)[C@H](Cc1ccccc1)NC(=O)[C@H](CO)NC(=O)[C@H](CCC(N)=O)NC(=O)[C@@H]1CCCN1C(=O)[C@H](CCCCN)NC(=O)[C@@H]1CCCN1C(=O)[C@@H](N)CCCN=C(N)N)C(N)=O | 4.1 nM | –
2 | CSCC[C@H](NC(=O)[C@H](CC(C)C)NC(=O)CNC(=O)[C@H](Cc1ccccc1)NC(=O)[C@H](Cc1ccccc1)NC(=O)[C@H](CCC(N)=O)NC(=O)[C@H](C)NC(=O)[C@@H]1CCCN1C(=O)[C@H](CCCCN)NC(=O)[C@@H]1CCCN1C(=O)[C@@H](N)CCCNC(=N)N)C(N)=O | 0.7 nM | –
3 | CC[C@H](C)[C@H](NC(=O)[C@H](Cc1ccccc1)NC(=O)[C@H](CO)NC(=O)[C@H](C)NC(=O)[C@@H]1CCCN1C(=O)[C@H](CC(N)=O)NC(=O)[C@@H](N)Cc1cnc[nH]1)C(=O)NCC(=O)N[C@@H](CC(C)C)C(=O)N[C@@H](CCSC)C(N)=O (H-HNPASFIGLM-NH2) | – | 32.4 nM
4 | CSCC[C@H](NC(=O)[C@H](CC(C)C)NC(=O)CNC(=O)[C@H](Cc1ccccc1)NC(=O)[C@H](Cc1ccccc1)NC(=O)[C@H](CCC(N)=O)NC(=O)[C@H](CCC(N)=O)NC(=O)[C@@H]1CCCN1C(=O)[C@H](CCCCN)NC(=O)[C@@H]1CCCN1)C(N)=O (H-PKPQQFFGLM-NH2) | 4.6 nM | –
5 | CSCC[C@H](NC(=O)[C@H](CC(C)C)NC(=O)CNC(=O)[C@H](Cc1ccccc1)NC(=O)[C@H](Cc1ccccc1)NC(=O)[C@H](CO)NC(=O)[C@H](C)NC(=O)[C@@H]1CCCN1C(=O)[C@H](CCCCN)NC(=O)[C@@H]1CCCN1C(=O)[C@@H](N)CCCN=C(N)N)C(N)=O (H-RPKPASFFGLM-NH2) | 21 nM | –
